Several values for one entry are separate records, joined by “and”; a condition that tells them apart may be missing. Equal values may be shown once.
Molecular target: P2Y12 receptor (Homo sapiens, UniProt Q9H244)
Test: [33P]-2MeS-ADP binding to recombinant human P2Y12 membranes (Assay 3)
Set-up: expressed in transfected cells; host or cells: HEK cells
Details: for IC50 / Ki: HEK cell membranes expressing human P2Y12, competition with 33P 2MeS-ADP; for inhibition at 10 µM / % Inhibition: 10 μM
In short: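 Membranes from HEK cells transfected with human P2Y12, used in competitive binding against [33P]-2MeS-ADP in Tris/NaCl/EDTA buffer with 0.02% BSA. Seven-point 3-fold dilutions from 10 μM final, 1 h at room temperature, then filtration and scintillation counting. IC50 from four-parameter fit with Hill slope fixed at one, plate controls defining min/max.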

[1] = at highest concentration tested

Sequence of P2Y12 receptor (Q9H244 whole entry): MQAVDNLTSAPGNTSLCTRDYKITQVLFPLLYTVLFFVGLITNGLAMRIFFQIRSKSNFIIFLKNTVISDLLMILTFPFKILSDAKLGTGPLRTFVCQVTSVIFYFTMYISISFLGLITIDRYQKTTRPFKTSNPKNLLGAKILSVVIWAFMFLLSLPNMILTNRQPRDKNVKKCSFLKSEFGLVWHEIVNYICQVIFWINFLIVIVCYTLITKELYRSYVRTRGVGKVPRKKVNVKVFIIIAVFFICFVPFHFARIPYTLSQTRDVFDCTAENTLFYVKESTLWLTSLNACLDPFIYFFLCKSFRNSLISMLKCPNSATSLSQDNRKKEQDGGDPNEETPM

SMILES | IC50 | Ki | inhibition at 10 µM [1] [%] | inhibition at 1 µM (at highest concentration tested, 1 μM) [%] | % Inhibition [1]
CCc1cc2c(N3CCN(C(=O)c4c(-c5ccc(OC)cc5)noc4C)CC3)nc(SCC(=O)OC)nc2s1 [Example 68, Methyl {[6-ethyl-4-(4-{[3-(4-methoxyphenyl)-5-methylisoxazol-4-yl]carbonyl}piperazin-1-yl)thieno[2,3-d]pyrimidin-2-yl]thio}acetate] | 6420 nM | 3880 nM | 96.4 | – | –
CCc1cc2c(N3CCN(C(=O)c4csc(-c5ccccc5)n4)CC3)nc(SCC(=O)OC)nc2s1 [Example 69, Methyl [(6-ethyl-4-{4-[(2-phenyl-1,3-thiazol-4-yl)carbonyl]piperazin-1-yl}thieno[2,3-d]pyrimidin-2-yl)thio]acetate] | 87.8 nM | 53 nM | 56.8 | – | –
CCc1cc2c(N3CCN(C(=O)c4nnc(-c5ccccc5)o4)CC3)nc(SCC(=O)OC)nc2s1 [Example 70, Methyl [(6-ethyl-4-{4-[(5-phenyl-1,3,4-oxadiazol-2-yl)carbonyl]piperazin-1-yl}thieno[2,3-d]pyrimidin-2-yl)thio]acetate] | 144 nM | 89 nM | 82.1 | – | –
CCCOc1ccc(C(=O)N2CCN(c3nc(SCC(=O)OC)nc4sc(CC)cc34)CC2)cc1 [Example 71, Methyl ({6-ethyl-4-[4-(4-propoxybenzoyl)piperazin-1-yl]thieno[2,3-d]pyrimidin-2-yl}thio)acetate] | 289 nM | 179 nM | 89.3 | – | –
CCc1cc2c(N3CCN(C(=O)c4cc(N(C)C)nc(N(C)C)n4)CC3)nc(SCC(=O)OC)nc2s1 [Example 72, Methyl {[4-(4-{[2,6-bis(dimethylamino)pyrimidin-4-yl]carbonyl}piperazin-1-yl)-6-ethylthieno[2,3-d]pyrimidin-2-yl]thio}acetate] | 681 nM | 423 nM | 88.7 | – | –
CCCCOc1ccc(C(=O)N2CCN(c3nc(SCC(=O)OC)nc4sc(CC)cc34)CC2)cc1 [Example 73, Methyl ({4-[4-(4-butoxybenzoyl)piperazin-1-yl]-6-ethylthieno[2,3-d]pyrimidin-2-yl}thio)acetate] | 371 nM | 230 nM | 82 | – | –
CCc1cc2c(N3CCN(C(=O)c4cccc(N(C)C)c4)CC3)nc(SCC(=O)OC)nc2s1 [Example 74, Methyl [(4-{4-[3-(dimethylamino)benzoyl]piperazin-1-yl}-6-ethylthieno[2,3-d]pyrimidin-2-yl)thio]acetate] | 5740 nM | 3690 nM | 59 | – | –
CCc1cc2c(N3CCN(C(=O)c4cccc(OC)c4)CC3)nc(SCC(=O)OC)nc2s1 [Example 75, Methyl ({6-ethyl-4-[4-(3-methoxybenzoyl)piperazin-1-yl]thieno[2,3-d]pyrimidin-2-yl}thio)acetate] | 3500 nM | 2250 nM | 70.5 | – | –
CCOc1cccc(C(=O)N2CCN(c3nc(SCC(=O)OC)nc4sc(CC)cc34)CC2)c1 [Example 76, Methyl ({4-[4-(3-ethoxybenzoyl)piperazin-1-yl]-6-ethylthieno[2,3-d]pyrimidin-2-yl}thio)acetate] | 1170 nM | 730 nM | 75.9 | – | –
CCc1cc2c(N3CCN(C(=O)c4ccc5nccnc5c4)CC3)nc(SCC(=O)OC)nc2s1 [Example 77, Methyl ({6-ethyl-4-[4-(quinoxalin-6-ylcarbonyl)piperazin-1-yl]thieno[2,3-d]pyrimidin-2-yl}thio)acetate] | 4850 nM | 2810 nM | 63.4 | – | –
CCc1cc2c(N3CCN(C(=O)c4cccc(-c5ccccc5)c4)CC3)nc(SCC(=O)OC)nc2s1 [Example 78, Methyl ({4-[4-(1,1′-biphenyl-3-ylcarbonyl)piperazin-1-yl]-6-ethylthieno[2,3-d]pyrimidin-2-yl}thio)acetate] | 35 nM and 20 nM and 69 nM | 20 nM and 10 nM and 40 nM | 92.6 | 94 | 87.73%
CCc1cc2c(N3CCN(C(=O)c4ccc(C(N)=O)cc4)CC3)nc(SCC(=O)OC)nc2s1 [Example 79, Methyl [(4-{4-[4-(aminocarbonyl)benzoyl]piperazin-1-yl}-6-ethylthieno[2,3-d]pyrimidin-2-yl)thio]acetate] | 8700 nM | 5050 nM | 47.7 | – | –
CCc1cc2c(N3CCN(C(=O)c4ccc(C(=O)OC)cc4)CC3)nc(SCC(=O)OC)nc2s1 [Example 80, Methyl 4-[(4-{6-ethyl-2-[(2-methoxy-2-oxoethyl)thio]thieno[2,3-d]pyrimidin-4-yl}piperazin-1-yl)carbonyl]benzoate] | 3780 nM | 2450 nM | 60 | – | –
CCc1cc2c(N3CCN(C(=O)c4csc(-c5cccnc5)n4)CC3)nc(SCC(=O)OC)nc2s1 [Example 81, Methyl [(6-ethyl-4-{4-[(2-pyridin-3-yl-1,3-thiazol-4-yl)carbonyl]piperazin-1-yl}thieno[2,3-d]pyrimidin-2-yl)thio]acetate] | 1720 nM | 1070 nM | 76.7 | – | –
CCc1cc2c(N3CCN(C(=O)Cc4ccccc4)CC3)nc(SCCC(=O)OC)nc2s1 [Example 82, methyl 3-({6-ethyl-4-[4-(phenylacetyl)piperazin-1-yl]thieno[2,3-d]pyrimidin-2-yl}thio)propanoate] | 390 nM and 1170 nM and 220 nM and 270 nM and 400 nM | 212 nM and 667 nM and 120 nM and 150 nM and 230 nM | 92.7 | – | 86.00% and 93.95% and 94.10% and 89.55%
CCc1cc2c(N3CCN(C(=O)Cc4ccccc4)CC3)nc(SCC(=O)O)nc2s1 [Example 83, ({6-ethyl-4-[4-(phenylacetyl)piperazin-1-yl]thieno[2,3-d]pyrimidin-2-yl}thio)acetic acid] | 230 nM and 940 nM and 430 nM and 470 nM | 127 nM and 540 nM and 240 nM and 270 nM | 92 | – | 90.75% and 91.85% and 86.17%
CCc1cc2c(N3CCN(C(=O)Cc4ccccc4)CC3)nc(SCCCCO)nc2s1 [Example 84, 4-({6-ethyl-4-[4-(phenylacetyl)piperazin-1-yl]thieno[2,3-d]pyrimidin-2-yl}thio)butan-1-ol] | 580 nM and 1440 nM and 220 nM and 270 nM and 520 nM | 315 nM and 825 nM and 130 nM and 150 nM and 300 nM | – | – | 90.62% and 71.83% and 92.13% and 94.46% and 90.58%
CCc1cc2c(N3CCN(C(=O)Cc4ccccc4)CC3)nc(SCCO)nc2s1 [Example 87, 2-({6-ethyl-4-[4-(phenylacetyl)piperazin-1-yl]thieno[2,3-d]pyrimidin-2-yl}thio)ethanol] | 570 nM and 590 nM and 200 nM and 320 nM | 310 nM and 337 nM and 110 nM and 180 nM | – | – | –
CCc1cc2c(N3CCN(C(=O)Cc4ccccc4)CC3)nc(SCCN(C)C)nc2s1 [Example 88, N-[2-({6-ethyl-4-[4-(phenylacetyl)piperazin-1-yl]thieno[2,3-d]pyrimidin-2-yl}thio)ethyl]-N,N-dimethylamine] | 1680 nM and 1480 nM and 640 nM and 370 nM and 1200 nM | 913 nM and 848 nM and 370 nM and 210 nM and 700 nM | 94.1 | – | 80.30% and 84.54% and 89.14% and 82.41%

From patent US20080176857A1, “4-Piperazinnylthieno[2,3-d]Pyrimidine Compounds as Platelet Aggregation Inhibitors” (priority 2005, published 2008)
